In patent US20190255144A1, “SPECIFIC OLIGOPEPTIDES AS ANTI-ANGIOGENIC DRUGS” (NEURONAX, priority 2014, published 2019):

System: chorioallantoic membrane (CAM) vascularization
Experiment: Treatments on the chorioallantoic membrane (CAM), fluorescein angiography
Type: in vivo, chicken embryo
Details: impregnated sponge on CAM at ED9; oligopeptide 250 μg/mL (9 hours), VEGF 10 ng/mL
Text: In fact, TSP-1 is known for inducing the apoptosis of endothelial cells. […] It is also a decisive process under certain physiological and pathological conditions (cancers in particular). This mechanism is controlled by numerous factors having either an inhibitor potential or an activator. So as to evaluate the main properties of these in vivo factors, the most common model is the CAM (chorioallantoic membrane) model from the chicken embryo (Ribatti et al., 2000). It offers the advantage of making it possible to test the pro- or anti-angiogenic factors during an active angiogenesis phase between the embryonic stages 4j and 10j. The major effects of the various molecules can therefore be evaluated in vivo. The model of the CAM can also be used in experimental tumor development. The grafting of human cancer cells onto the surface of the CAM is carried out in the 9-day embryonic stage. Three days after the grafting at ED12, the formation of a tumor is visible at the surface of the CAM. The latter can be treated topically during the 48 hours that follow this stage, and the tumors are sampled at ED14j. The fertilized eggs (Haas Poultry Farm, Strasbourg, France) are kept for 24 hours at 18° C. before the incubation is started up. […] The embryonic stages are determined from tables of Hamburger and Hamilton (H and H, 1951). […]

VEGF
Vascularization / microvascularization of the CAM (in words): the microvascularization is dense and comprises numerous vascular branches
